Experimental data: patent US20170027893A1, “THIOSEMICARBAZONES INHIBITORS OF LYSOPHOSPHATIDIC ACID ACYLTRANSFERASE AND USES THEREOF” (H. LEE CANCER CENTER AND RESEARCH INSTITUTE, INC., priority 2014, published 2017)
Where two headings read alike, the source gives them in different places.

Assays:
LPAAT-β [1] = target: T1, LPAAT-β (Homo sapiens, UniProt O15120); test: secondary thin layer chromatography (TLC) assay measuring fluorescent PA; type: biochemical; set-up: The assay utilizes full-length, recombinant, baculovirus-produced LPAAT-β; made in house
T1 sequence (O15120 24-278): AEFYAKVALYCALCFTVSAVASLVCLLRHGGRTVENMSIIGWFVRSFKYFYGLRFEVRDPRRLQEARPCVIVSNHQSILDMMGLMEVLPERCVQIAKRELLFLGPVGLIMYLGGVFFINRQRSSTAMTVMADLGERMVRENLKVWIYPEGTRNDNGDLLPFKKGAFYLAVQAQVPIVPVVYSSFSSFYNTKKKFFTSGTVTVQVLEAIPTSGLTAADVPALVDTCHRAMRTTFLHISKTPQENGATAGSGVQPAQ

LPAAT-β [2] = target: T1, LPAAT-β; test: DTNB (Ellman's reagent) 96-well plate screening assay of LPAAT-β enzymatic activity; type: biochemical; set-up: The assay utilizes full-length, recombinant, baculovirus-produced LPAAT-β; made in house
Method: Screening with a modified screening assay in 96-well plate format for LPAAT-β enzymatic activity was performed as reported by Aguado and Campbell (Aguado et al., Characterization of a human lysophosphatidic acid acyltransferase that is encoded by a gene located in the class III region of the human major histocompatibility complex. J. Biol. Chem. 1998, 273, 4096-105).
The assay utilizes full-length, recombinant, baculovirus-produced LPAAT-β, which catalyzes the production of dioleoyl-[…] from the enzymatic substrates oleoyl-lysophosphatidic acid (LPA) and oleoyl-coenzyme A (Scheme 2). The ability of the compound to inhibit the LPAAT-β activity was assayed by the colorimetric measurement of the reaction of the free thiol group of the released coenzyme A with Ellman's reagent [5,5′-dithiobis-(2-nitrobenzoic acid) or DTNB] (Riener et al., Quick measurement of protein sulfhydryls with Ellman's reagent and with 4,4′-dithiodipyridine. Anal. Bioanal. Chem. 2002, 373, 266-76). […] A hit identified from the Life Chemicals library 6a (IC50 100 nM) was selected for further investigation.

[3] = tested on: MiaPaCa2 human pancreatic cancer cells; test: inhibition of proliferation, Alamar blue, 72 h; type: cell-based
Method: The ability of selected compounds from the libraries 6, 15 and 19 to inhibit the growth of MiaPaCa2 human pancreatic cancer cells was investigated. Human pancreatic carcinoma (MiaPaCa2) cells were plated at a low confluency into 96-well tissue culture-treated plates. After allowing cells to attach and grow overnight at 37 degrees in a 5% CO2 incubator, growth medium was replaced with fresh medium (100 μl/well) containing compounds in a range from 0.1-100 μM. All treatments were made from 500× stock solutions in DMSO, and the control wells received an equivalent amount of DMSO in medium. After 72 hours of growth in the presence of the compounds, Alamar blue was added to the wells according to the manufacturer's instructions (Life Technologies, Grand Island, N.Y.) and cells were incubated in its presence for 2-3 hours. Fluorescence readings were performed using a Biotek Synergy II plate reader with […] wavelengths of 530/590 nm. […] Calculated IC50s are representative of at least three independent experiments.

LPAAT-β [4] = target: T1, LPAAT-β; conditions: previously reported inhibitors; cited from earlier work
[5] = read-out: IC50 (μM) (DTNB assay) (converted)
[6] = Table 4, read-out: IC50 (μm) (DTNB assay) (converted)

| Compound | IC50 (LPAAT-β [1]) [µM] | IC50 (LPAAT-β [2]; [5]) [µM] | IC50 (LPAAT-β [1]; Table 4) [µM] | IC50 (LPAAT-β [2]; [6]) [µM] | also measured |
| --- | --- | --- | --- | --- | --- |
| C=CCc1cccc(C(C)=NNC(N)=S)c1O [Compound 15b] | > 10 | 0.52 ± 0.25 |  |  |  |
| NC(=S)NN=Cc1ccccc1O [Compound 6b] | > 100 | > 100 |  |  | LPAAT-β inhibitory activity in words (TLC assay) (LPAAT-β [1]): inactive; LPAAT-β inhibitory activity in words (assay not given) (LPAAT-β [2]): inactive |
| C=CCc1cccc(/C=N/NC(N)=O)c1O [Compound 6w] |  |  |  |  | LPAAT-β inhibitory activity in words (assay not given) (LPAAT-β [2]): inactive |
| CCCc1cccc(C=NNC(=S)NC(=O)c2ccccc2)c1O [Compound 10c] |  | > 100 |  |  | LPAAT-β inhibitory activity in words (assay not given) (LPAAT-β [2]): inactive |
| C=CCc1cc(-c2ccc(C)c(Cl)c2)cc(C(C)=NNC(N)=S)c1O [Compound 19w] | 9.2 ± 4.2 | 0.67 ± 0.16 | 9.2 ± 4.2 | 0.67 ± 0.16 | IC50 [3]: 7.2 ± 3.1 µM |
| C=CCc1cccc(C=NNC(=S)NC)c1O [Compound 10a] | > 10 | 3.9 ± 2.3 |  |  |  |
| CCCCCCCc1cccc(C=NNC(N)=S)c1O [Compound 6q] | 9.7 | > 100 |  |  |  |
| C=CCc1cc(-c2ccc(Cl)cc2Cl)cc(C(C)=NNC(N)=S)c1O [Compound 19r] | 2.1 ± 0.9 | 0.52 ± 0.23 | 2.1 ± 0.9 | 0.52 ± 0.23 | IC50 ([3]; Homo sapiens, MIA PaCa-2): 7.6 ± 0.9 µM |
| CCCCc1cccc(C=NNC(N)=S)c1O [Compound 6o] | > 10 |  |  |  |  |
| C=CCc1cccc(C=NN=c2scc(-c3ccccc3)n2C)c1O [Compound 11a] | > 10 | > 100 |  |  | LPAAT-β inhibitory activity in words (assay not given) (LPAAT-β [2]): inactive |
| C=CCc1cc(C(C)C)cc(C(C)=NNC(N)=S)c1O [Compound 19g] |  |  | 1.4 | 0.16 |  |
| C=CCc1cc(CCC)cc(C(C)=NNC(N)=S)c1O [Compound 19f] |  |  | 2.4 | 0.27 |  |
| C=CCc1cc(CC)cc(C(C)=NNC(N)=S)c1O [Compound 19e] |  |  | 1.9 | 0.2 |  |
| CCc1cccc(C(C)=NNC(N)=S)c1O [Compound 15c] | > 10 | 0.73 ± 0.76 |  |  |  |
| C=CCc1cc(Cl)cc(C(C)=NNC(N)=S)c1O [Compound 15d] | 32 | 0.2 |  |  |  |
| NC(=S)N/N=C/c1cccc2c1oc1ccccc12 [Compound 6t] |  |  |  |  | LPAAT-β inhibitory activity in words (assay not given) (LPAAT-β [2]): inactive |
| C=CCc1cc(-c2ccc(Br)cc2)cc(C(C)=NNC(N)=S)c1O [Compound 19o] | 4.2 ± 1.2 | 0.18 ± 0.07 | 4.2 | 0.18 | IC50 [3]: 5.8 ± 1.6 µM |
| Cc1cccc(C=NNC(N)=S)c1O [Compound 6h] | > 10 | 7.5 |  |  |  |
| C=CCc1cc(-c2cc(Cl)cc(Cl)c2)cc(C(C)=NNC(N)=S)c1O [Compound 19t] | 17 ± 7.3 | 0.57 ± 0.27 | 17 ± 7.3 | 0.57 ± 0.27 | IC50 ([3]; Homo sapiens, MIA PaCa-2): 4.9 ± 2 µM |
| C=CCc1cc(CC(=O)OC)cc(C(C)=NNC(N)=S)c1O [Compound 19m] |  |  |  | 1.15 |  |
| C#CCOC(=O)Nc1ccc(Cl)c(-c2nc3cc(Cl)ccc3o2)c1 [Compound 3] |  |  |  |  | in vitro activity against LPAAT-β enzyme activity, in words (LPAAT-β [4]): potent anti-enzymatic activity |
| NC(=S)NN=Cc1cccc(CCCc2ccccc2)c1O [Compound 6r] |  | > 100 |  |  |  |
| CCCc1cccc(C=NNC(=S)NC)c1O [Compound 10b] | > 10 | 14 ± 12 |  |  |  |
| C=CCc1cc(C(C)(C)C)cc(C(C)=NNC(N)=S)c1O [Compound 19i] |  |  | 1.3 | 0.31 |  |
| C=CCc1cc(-c2ccc(F)cc2)cc(C(C)=NNC(N)=S)c1O [Compound 19q] |  |  | 5.1 ± 3 | 0.29 ± 0.06 |  |
| NC(=S)NN=Cc1cccc(Cl)c1O [Compound 6f] | > 10 | 2 |  |  |  |
| C=CCc1cc(F)cc(C(C)=NNC(N)=S)c1O [Compound 19b] |  |  | 24 | 0.24 |  |
| CCCc1cccc(C(C)=NNC(N)=S)c1O [Compound 15a] | 35 ± 18 | 0.65 ± 0.42 |  |  | IC50 ([3]; Homo sapiens, MIA PaCa-2): 23 ± 15 µM |
